According to publication PMC10491607, “Structural insight into the substrate recognition and transport mechanism of amino acid transporter complex ACE2-B^0AT1 and ACE2-SIT1” (Cell Discovery, 2023):
Blank lines part the entries; values can stand above or below the molecule they belong to.

Key:
ACE2-B^0AT1 complex [1] = molecular target: T1, ACE2-B^0AT1 complex (Homo sapiens, UniProt Q695T7); test: cryo-EM structure of the complex, […] A; assay type: binding; details: central substrate site between TM1 and TM6
T1 construct: gene SLC6A19; purified complex for cryo-EM; with Angiotensin-converting enzyme 2

ACE2-B^0AT1 complex [2] = molecular target: T1, ACE2-B^0AT1 complex; test: cryo-EM structure of the complex, […] A; assay type: binding; details: central substrate site between TM1 and TM6; remark: listed apart in the source
ACE2-SIT1 complex [3] = molecular target: T2, ACE2-SIT1 complex (Homo sapiens, UniProt Q9NP91); test: Pro-induced transport current in HEK293T cells co-expressing SIT1 and ACE2; assay type: cell-based
T2 construct: gene SLC6A20; co-expressed in HEK293T cells for currents; purified complex for cryo-EM (two protomers, each ACE2 plus SIT1); with Angiotensin-converting enzyme 2

ACE2-SIT1 complex [4] = molecular target: T3, ACE2-SIT1 complex (Homo sapiens, UniProt Q9NP91, Q247A); test: as above; assay type: cell-based
T3 construct: gene SLC6A20; co-expressed in HEK293T cells for currents; purified complex for cryo-EM (two protomers, each ACE2 plus SIT1); with Angiotensin-converting enzyme 2
T3 sequence (Q9NP91 whole entry Q247A): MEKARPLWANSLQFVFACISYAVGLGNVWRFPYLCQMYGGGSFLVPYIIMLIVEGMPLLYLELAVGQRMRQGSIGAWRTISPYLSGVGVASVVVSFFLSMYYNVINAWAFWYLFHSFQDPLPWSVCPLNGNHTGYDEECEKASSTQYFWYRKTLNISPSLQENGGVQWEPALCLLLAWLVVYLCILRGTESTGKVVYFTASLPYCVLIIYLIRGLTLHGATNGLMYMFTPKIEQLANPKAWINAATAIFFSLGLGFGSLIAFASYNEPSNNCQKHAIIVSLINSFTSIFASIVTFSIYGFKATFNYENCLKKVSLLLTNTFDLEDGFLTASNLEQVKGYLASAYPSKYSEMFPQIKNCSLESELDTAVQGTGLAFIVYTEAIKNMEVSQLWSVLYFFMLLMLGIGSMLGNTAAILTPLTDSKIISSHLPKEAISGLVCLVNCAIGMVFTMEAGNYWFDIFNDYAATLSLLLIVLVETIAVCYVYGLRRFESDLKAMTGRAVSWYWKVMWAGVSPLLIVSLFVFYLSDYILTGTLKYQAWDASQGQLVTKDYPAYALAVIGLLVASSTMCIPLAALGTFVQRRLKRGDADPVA
T3 sequence (Q9BYF1 18-805 partner): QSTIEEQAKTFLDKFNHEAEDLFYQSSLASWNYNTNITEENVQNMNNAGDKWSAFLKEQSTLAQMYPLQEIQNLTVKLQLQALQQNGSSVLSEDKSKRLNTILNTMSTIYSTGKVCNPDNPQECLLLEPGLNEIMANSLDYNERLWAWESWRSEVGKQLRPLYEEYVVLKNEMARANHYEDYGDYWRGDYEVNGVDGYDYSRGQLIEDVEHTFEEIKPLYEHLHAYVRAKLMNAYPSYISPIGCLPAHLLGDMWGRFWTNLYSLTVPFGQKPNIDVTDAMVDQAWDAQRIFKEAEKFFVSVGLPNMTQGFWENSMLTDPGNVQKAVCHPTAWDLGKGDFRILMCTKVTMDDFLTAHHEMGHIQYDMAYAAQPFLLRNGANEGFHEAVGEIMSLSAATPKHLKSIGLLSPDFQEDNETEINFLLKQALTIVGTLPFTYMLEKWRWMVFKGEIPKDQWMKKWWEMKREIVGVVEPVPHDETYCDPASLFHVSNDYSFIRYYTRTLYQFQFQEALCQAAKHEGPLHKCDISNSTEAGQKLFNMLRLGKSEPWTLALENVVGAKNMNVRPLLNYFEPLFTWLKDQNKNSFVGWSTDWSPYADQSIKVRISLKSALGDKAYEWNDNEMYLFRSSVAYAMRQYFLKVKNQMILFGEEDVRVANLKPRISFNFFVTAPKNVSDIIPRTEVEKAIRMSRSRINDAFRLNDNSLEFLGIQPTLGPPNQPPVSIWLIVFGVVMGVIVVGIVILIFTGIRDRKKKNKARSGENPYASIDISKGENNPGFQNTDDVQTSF

T1 sequence (Q695T7 whole entry): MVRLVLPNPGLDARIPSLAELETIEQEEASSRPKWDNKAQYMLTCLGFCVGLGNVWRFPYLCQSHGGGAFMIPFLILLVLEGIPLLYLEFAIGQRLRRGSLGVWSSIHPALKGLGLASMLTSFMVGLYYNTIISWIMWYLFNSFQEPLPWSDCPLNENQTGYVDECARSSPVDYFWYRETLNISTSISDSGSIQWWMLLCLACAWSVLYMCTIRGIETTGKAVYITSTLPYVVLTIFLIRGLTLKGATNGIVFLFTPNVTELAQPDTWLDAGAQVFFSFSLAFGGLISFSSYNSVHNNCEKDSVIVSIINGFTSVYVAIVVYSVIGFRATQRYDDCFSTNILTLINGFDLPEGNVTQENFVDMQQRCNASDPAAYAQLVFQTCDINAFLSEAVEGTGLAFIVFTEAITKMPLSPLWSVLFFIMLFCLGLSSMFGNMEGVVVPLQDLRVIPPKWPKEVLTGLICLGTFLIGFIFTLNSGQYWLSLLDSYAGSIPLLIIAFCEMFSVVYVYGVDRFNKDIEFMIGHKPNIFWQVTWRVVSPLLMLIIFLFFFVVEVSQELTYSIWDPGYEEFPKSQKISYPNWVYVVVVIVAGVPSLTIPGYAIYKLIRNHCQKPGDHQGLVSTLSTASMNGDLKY
T1 sequence (Q9BYF1 18-805 partner): as the sequence (Q9BYF1 18-805 partner) above
T2 sequence (Q9NP91 whole entry): as the sequence (Q9NP91 whole entry Q247A) above, with A247Q counted along it
T2 sequence (Q9BYF1 18-805 partner): as the sequence (Q9BYF1 18-805 partner) above

Structure (SMILES): NC(=O)CC[C@H](N)C(=O)O [Gln]
cryo-EM structure of the complex, 3.2 A (ACE2-B^0AT1 complex [1]): ACE2-B^0AT1 complex bound to its native substrates Gln and Met are determined

Structure (SMILES): CSCC[C@H](N)C(=O)O [Met]
cryo-EM structure of the complex, 3.1 A (ACE2-B^0AT1 complex [2]): ACE2-B^0AT1 complex bound to its native substrates Gln and Met are determined

EC50 (ACE2-SIT1 complex [3]): ~2510 µM
EC50 (ACE2-SIT1 complex [4]): ~70 µM
Structure (SMILES): O=C(O)[C@@H]1CCCN1 [Pro]
